Test results from patent publication US11135163B2, “Peptide hydrogel properties and its applications” (Kansas State University Research Foundation, priority 2014, dated 2021).

How the values were obtained:
[1] = Hydrogel formation and gelation time sweep of h9e with commercial mouse blood; conditions: all concentrations except 1%
Procedure: About 150 μL of the appropriate wt % of peptide solution was added to 150 μL of commercial mouse blood in a small vial. The mixture was pipetted 5 times to ensure continuity and observed for visual hydrogel formation. Visual observation of hydrogel formation was recorded via a Nikon Coolpix L22 camera (FIG. 9).
Hydrogel gelation time sweep (instantaneous): A time sweep was conducted on the hydrogel and commercial mouse blood mixture. 150 μL of the appropriate wt % of peptide solution was added to 150 μL of commercial mouse blood in a small vial. The mixture was pipetted about 5 times to ensure continuity and added to the rheometer for evaluation. Both storage and loss moduli, G′ and G″ respectively, of the h9e/blood hydrogel were determined using a C-VOR 150 rheometer (Malvern Instruments, Malvern, Worcestershire, United Kingdom). A plate 20 mm in diameter was used with 1% strain and frequency of 1 Hz at a 37° C. temperature for 30 minutes.
Hydrogel stability gelation time sweep (24 hours post gelatinization): A time sweep was conducted on the hydrogel and commercial mouse blood mixture. 24 hours post gelation. […] Both storage and loss moduli, G′ and G″ respectively, of the h9e/blood hydrogel was determined using a C-VOR 150 rheometer (Malvern Instruments, Malvern, Worcestershire, United Kingdom). […]

[2] = Rheology of h9e/BSA hydrogel formation (storage modulus G′); format: physicochemical; conditions: for G′ after 2 hours of testing: 3 mM h9e
Procedure: For albumin triggered hydrogel formation, 10 mM (1.74 wt %) peptide was first dissolved in 100 mM NaHCO3 solution. BSA and HSA were dissolved in water with 5 wt % concentration. The peptide solution and albumin solution were then mixed at different ratios for final mixtures of 1, 2, 3 mM h9e peptide with albumin from 0.1 to 5 wt %.
The storage (G′) and loss (G″) moduli of h9e hydrogels with different peptide/albumin ratios were measured on a rheometer system C-VOR 150 (Malvern instruments, Malvern, Worcestershire WR141XZ, United Kingdom) with a 20 mm diameter parallel plate test system. All rheological tests were carried out at 37° C. […]

HeLa cells = experiment: HeLa cell viability (CCK-8) in 3D h9e hydrogel; format: cell-based; conditions: same amount of camptothecin
Procedure: Cell culture and drug efficacy/diffusion tests: HeLa cells were grown in the hydrogel in 3D. Aliquots of HeLa cells solution were added into […] hydrogel with DMEM containing 10% FBS with a final peptide concentration of 0, 0.25, 0.5 and 1 wt %. 100 μl of cell mixture solution (3×10^4 cells per well) was seeded into a 96-well culture plate (Becton Dickinson Labware, Franklin Lakes, N.J.) and placed in an incubator (Nuair, Playmouth, Minn.) in a humidified 5% CO2 atmosphere at 37° C. for about 30 min. After complete hydrogelation, 10 μl of DMEM containing 0, 50 uM, 100 uM, or 200 uM camptothecin was added on top of the hydrogel to obtain camptothecin concentrations of 0 μM, 3.125 μM, 6.25 μM, and 12.5 μM, respectively, upon total diffusion in the hydrogel. Then, 50 ul of DMEM was carefully added to the top of the hydrogel to prevent drying during long-term incubation. All measurements were made at least in triplicate, and the plates were incubated for 3 days. A CCK-8 assay was used to determine cell viability after each treatment. 10 μL of CCK solution was added to each well. After 4 h of incubation, the absorbance at 450 nm was collected on a microplate reader (mQuant, Bio-Tek) and corrected by subtracting the background signal from a wall containing only 160 ul DMEM containing 10% FBS. […]

[3] = Hydrogelation and dynamic rheology of h9e in MEM; format: physicochemical; conditions: MEM without serum
[4] = h9e-MSC medium hydrogel rheology; format: physicochemical
Procedure: Two different types of stem cell mediums were selected for this test. One is a low glucose DMEM medium with 2% (v/v) Fetal Bovine Serum (FBS) for Mesenchymal Stromal Cell (MSC medium). The other one is a N2B27 supplemented serum-free 2i medium with 0.5% (v/v) Bovine Serum Albumin (BSA) for rat Embryonic Stem Cell (ESC, 2i medium). The hydrogel formation process was monitored under a time sweep rheological test for 1 hour. The special shear-thinning and self-healing property of h9e peptide hydrogel was also tested. […] In addition, the stability of hydrogel as well as the peptide solution before the hydrogel formation was also tested.
The h9e peptide was synthesized according to the method mentioned above. Lyophilized peptide was added to 100 mM sodium bicarbonate and completely dissolved by magnetic stirring for 3 hours with a final peptide concentration of 10 mM. For hydrogelation, peptide solution was added into MSC medium or 2i medium and the mixture was hand-shaken for about 10 seconds or gently pipette mixed 3 times. The final peptide concentrations were 1, 2, and 3 mM.
The storage and loss moduli (G′ and G″, respectively) of h9e hydrogels were determined on a C-VOR 150 rheometer system (Malvern instruments, Malvern, Worcestershire WR141XZ, United Kingdom) with a 20-mm diameter parallel plate geometry and 500 μm gap size at 37° C. The methods for hydrogel formation test and shear-thinning and self-healing test were the same as the methods of cancer cell medium mentioned above. After 24 hours of hydrogel formation, 2 mM peptide hydrogel was diluted 20 fold by adding cell culture medium and thorough mixing by pipette. The diluted solution was transferred to rheometer system and tested under 1 Hz frequency and 1% shear strain at 4° C. for 1 hour.

H-FLIVIGSIIGPGGDGPGGD-NH2 [h9e, FLIVIGSIIGPGGDGPGGD]
viscosity, strength and stability 24 hours post gelation versus instantaneous [1]: increased | hydrogel formation ([2]; 1 mM peptide with 1 wt % BSA, 2 hour test): performed like a Newtonian liquid | stable G′ ([2]; 3 mM h9e peptide solution mixed with 5% BSA, 37° C.): around 200 Pa | behaviour of peptide solution alone ([2]; 3 mM h9e solution without BSA, 30 min test): performed as Newtonian liquid | G′ after 2 hours of testing ([2]; 0.1 wt % BSA): about 110 Pa | G′ after 2 hours of testing ([2]; 0.5 wt % BSA): over 900 Pa | G′ after 2 hours of testing ([2]; 1 wt % BSA): 680 Pa | G′ after 2 hours of testing ([2]; 5 wt % BSA): 200 Pa | gel strength ([2]; 0.5% h9e peptide and 0.5% BSA, incubated at 37° C. for 30 min): about 450 Pa | HeLa cell viability across h9e hydrogel concentrations (HeLa cells): cell viability was comparable | solution to hydrogel transition [3]: did not stimulate this solution to hydrogel transitions effectively | stable G′ ([4]; 1 mM h9e-MSC hydrogel): 70 Pa | G′ under 500% shear strain ([4]; 2 mM h9e-MSC hydrogel): lower than 0.2 Pa | stable G′ ([4]; 2 mM h9e-MSC hydrogel): 350 Pa | gel strength recovered ([4]; 2 mM h9e-MSC hydrogel, 1 min after shear ceased): greater than 90% | mechanical strength recovered ([4]; 2 mM h9e-MSC hydrogel, within a few minutes of 1% shear strain recovery test): 100% | stable G′ ([4]; 3 mM h9e-MSC hydrogel): 800 Pa | G′ and G″ after 20-fold dilution ([4]; diluted from 2 mM to 0.1 mM, 1 hour test): lower than 4 Pa
